Reference: BindingDB's records for doi:10.1016/j.bmcl.2003.09.076 (Eli Lilly, 2003)

Assays:
[1] = Binding affinity towards Protease using PNA assay […]
[2] = Cytotoxic activity in human liver Huh-7 cells
[3] = Inhibitory activity against Protease using replicon assay […] at 50 uM concentration

SMILES	Ki [1]	IC50 [2]	IC50 [3]
CCCC(NC(=O)[C@@H]1[C@H]2CCC(F)(F)[C@H]2CN1C(=O)[C@@H](NC(=O)[C@H](O)C(C)C)C(C)C)C(=O)C(=O)NC1CC1 (stereo partly drawn) [(1S,3aR,6aS)-4,4-Difluoro-2-[(S)-2-((R)-2-hydroxy-3-methyl-butyrylamino)-3-methyl-butyryl]-octahydro-cyclopenta[c]pyrrole-1-carboxylic acid (1-cyclopropylaminooxalyl-butyl)-amide]	16.5 µM		
CCCC(NC(=O)[C@@H]1[C@H]2CCC[C@H]2CN1C(=O)[C@@H](NC(=O)[C@H](O)C(C)C)C(C)C)C(=O)C(=O)NC1CC1 (stereo partly drawn) [(1S,3aR,6aS)-2-[(S)-2-((R)-2-Hydroxy-3-methyl-butyrylamino)-3-methyl-butyryl]-octahydro-cyclopenta[c]pyrrole-1-carboxylic acid (1-cyclopropylaminooxalyl-butyl)-amide]	14.5 µM	> 100 µM	
CCCC(NC(=O)[C@@H]1[C@H]2CCC[C@H]2CN1C(=O)[C@@H](NC(=O)OC(C)C)C(C)(C)C)C(=O)C(=O)Nc1ccccc1 (stereo partly drawn) [{(S)-2,2-Dimethyl-1-[(1S,3aR,6aS)-1-(1-phenylaminooxalyl-butylcarbamoyl)-hexahydro-cyclopenta[c]pyrrole-2-carbonyl]-propyl}-carbamic acid isopropyl ester]	0.82 µM		
CCCC(NC(=O)[C@@H]1[C@H]2CCC(F)(F)[C@H]2CN1C(=O)[C@@H](NC(=O)OC(C)C)C(C)C)C(=O)C(=O)N[C@@H](C)c1ccccc1 (stereo partly drawn) [((S)-1-{(1S,3aR,6aS)-4,4-Difluoro-1-[1-((S)-1-phenyl-ethylaminooxalyl)-butylcarbamoyl]-hexahydro-cyclopenta[c]pyrrole-2-carbonyl}-2-methyl-propyl)-carbamic acid isopropyl ester]	6.7 µM	> 100 µM	
CCCC(NC(=O)[C@@H]1[C@H]2CCC[C@H]2CN1C(=O)[C@@H](NC(=O)OC(C)C)C(C)C)C(=O)C(=O)N[C@@H](C)c1ccccc1 (stereo partly drawn) [((S)-2-Methyl-1-{(1S,3aR,6aS)-1-[1-((S)-1-phenyl-ethylaminooxalyl)-butylcarbamoyl]-hexahydro-cyclopenta[c]pyrrole-2-carbonyl}-propyl)-carbamic acid isopropyl ester]	1.91 µM	> 100 µM	
CCCC(NC(=O)[C@@H]1[C@H]2CCC[C@H]2CN1C(=O)[C@@H](NC(=O)[C@H](O)C(C)C)C(C)C)C(=O)C(=O)Nc1ccccc1 (stereo partly drawn) [(1S,3aR,6aS)-2-[(S)-2-((R)-2-Hydroxy-3-methyl-butyrylamino)-3-methyl-butyryl]-octahydro-cyclopenta[c]pyrrole-1-carboxylic acid (1-phenylaminooxalyl-butyl)-amide]	1.8 µM		> 100 µM
CCCC(NC(=O)[C@@H]1[C@H]2CCC(F)(F)[C@H]2CN1C(=O)[C@@H](NC(=O)OC(C)C)C(C)(C)C)C(=O)C(=O)N[C@@H](C)c1ccccc1 (stereo partly drawn) [((S)-1-{(1S,3aR,6aS)-4,4-Difluoro-1-[1-((S)-1-phenyl-ethylaminooxalyl)-butylcarbamoyl]-hexahydro-cyclopenta[c]pyrrole-2-carbonyl}-2,2-dimethyl-propyl)-carbamic acid isopropyl ester]	2.1 µM	> 100 µM	
